Measurements published in US20240174637A1, “DEGRADERS OF GRK2 AND USES THEREOF” (Sonata Therapeutics, Inc., priority 2021, published 2024).
Structures can show the parent of a compound that is named as a salt. Where two headings read alike, the source gives them in different places.

Tests used:
[1] = molecular target: T1, GRK2 (Homo sapiens, UniProt P25098); test: GRK2 Inhibition Assay (TR-FRET, Example 1); assay type: biochemical
T1 sequence (P25098 1-689): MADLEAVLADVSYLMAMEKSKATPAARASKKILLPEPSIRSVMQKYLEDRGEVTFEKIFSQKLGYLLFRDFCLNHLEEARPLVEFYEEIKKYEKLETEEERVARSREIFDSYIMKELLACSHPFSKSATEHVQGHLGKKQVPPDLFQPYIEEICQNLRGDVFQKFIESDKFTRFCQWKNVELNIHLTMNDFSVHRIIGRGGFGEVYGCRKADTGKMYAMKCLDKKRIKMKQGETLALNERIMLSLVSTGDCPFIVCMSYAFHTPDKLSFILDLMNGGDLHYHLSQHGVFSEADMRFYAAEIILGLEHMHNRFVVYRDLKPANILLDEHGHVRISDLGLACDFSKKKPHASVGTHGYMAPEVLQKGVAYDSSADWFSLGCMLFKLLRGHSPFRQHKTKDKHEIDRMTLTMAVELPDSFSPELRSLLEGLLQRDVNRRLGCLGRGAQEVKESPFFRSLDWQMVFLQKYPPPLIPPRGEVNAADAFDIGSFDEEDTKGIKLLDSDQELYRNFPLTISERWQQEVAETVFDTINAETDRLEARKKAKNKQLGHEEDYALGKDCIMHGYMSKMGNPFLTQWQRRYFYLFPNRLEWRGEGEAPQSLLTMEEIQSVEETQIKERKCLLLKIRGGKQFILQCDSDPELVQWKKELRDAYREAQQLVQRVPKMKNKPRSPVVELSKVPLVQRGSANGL
Method in brief: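 TR-FRET phosphorylation readout: Eu anti-TopoIIα antibody with EDTA added after a 90 min RT kinase reaction of 1 nM GRK2, 7 μM ATP and 50 nM ULight-TopoIIα. Compounds were pre-incubated with enzyme 30 min at room temperature beforehand.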

[2] = system: PAXF1657 EV; test: 7-day cellular proliferation assay (CellTiter-Glo), PAXF1657 EV; assay type: cell-based
Method in brief: (§1)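 Viability by CellTiter-Glo after 7 days at 37° C., with compound-containing media replaced on day 3. Cells (500/well, RPMI1640 + 10% FBS) were PAXF1657 pairs: GRK2 overexpression vs empty vector, or CRISPR GRK2 knockout vs non-targeting clones; doses 30 μM-0.0002 μM final, 10 points, 0.3% DMSO.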

[3] = system: PAXF1657 KO Clone #4; test: 7-day cellular proliferation assay (CellTiter-Glo), PAXF1657 KO Clone #4; assay type: cell-based
Method in brief: as §1

[4] = molecular target: T1, GRK2; test: GRK2 Degradation Assay and Western Blot in PAXF1657 cells; assay type: cell-based; parameters: endogenous in cells; host or cells: PAXF1657; conditions: for inhibition at 0.3 µM: Conc 0.3 uM
Method in brief: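 GRK2 degradation judged by immunoblot: NP40 lysates separated by SDS-PAGE and probed for GRK2 and β-actin, with HRP/ECL detection. Lysates came from PAXF1657 cells exposed to 0–10 μM compound for 6–24 h after reaching 70% confluency.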

[5] = Table 4, Example 1 assay, read-out: Enzymatic GRK2 IC50: Av IC50 GRK2
[6] = proliferation, read-out: GeoMean IC50 (UM) PAXF1657 EV
[7] = proliferation, read-out: GeoMean IC50 (uM) PAXF1657 KO Clone #4
[8] = read-out: Degradation Assay - 3 point: Degradation (%)
[9] = Conc 1 uM, read-out: Degradation Assay - 3 point: Degradation (%)
[10] = Conc 3 uM, read-out: Degradation Assay - 3 point: Degradation (%)

Row | SMILES | IC50 [1, 5] [nM] | IC50 [2, 6] [µM] | IC50 [3, 7] [µM] | inhibition at 0.3 µM [4, 8] [%] | inhibition at 1 µM [4, 9] [%] | inhibition at 3 µM [4, 10] [%] | IC50 ([1]; TR-FRET, 7 μM ATP, read-out: Enzymatic GRK2 Assay: IC50 (nM) (Example 1)) | IC50 ([2]; 168 h, 7-day, read-out: 7-day proliferation assay: IC50 GeoMean (uM) [Cell Line: PAXF1657 EV]) [µM] | IC50 ([3]; 168 h, 7-day, read-out: 7-day proliferation assay: IC50 GeoMean (uM) [Cell Line: PAXF1657 KO Clone #4]) [µM] | inhibition at 1 µM ([4]; 1 uM, PAXF1657 EV, 24 hrs, read-out: % GRK2 degradation at 1 uM in PAXF1657 EV (24 hrs)) [%] | inhibition at 3 µM ([4]; 3 uM, PAXF1657 EV, 24 hrs, read-out: % GRK2 degradation at 3 uM in PAXF1657 EV (24 hrs)) [%] | DC50 ([4]; PAXF1657, 24 h, read-out: Degradation Assay - Full Dose Response: IC50 (uM) [cell line: PAXF1657, time point: 24 h]) [µM]
1 | C[C@@H](NC(=O)c1cccc(NCc2nnc(-c3ccncn3)n2C)c1)c1cccc(OCCCCCCOCCOCC(=O)Nc2cccc3c2CN(C2CCC(=O)NC2=O)C3=O)c1 (stereo partly drawn) [Compound D170, N-((1R)-1-(3-((6-(2-(2-((2-(2,6-dioxopiperidin-3-yl)-1-oxoisoindolin-4-yl)amino)-2-oxoethoxy)ethoxy)hexyl)oxy)phenyl)ethyl)-3-(((4-methyl-5-(pyrimidin-4-yl)-4H-1,2,4-triazol-3-yl)methyl)amino)benzamide] | 12.1 | 0.41 | > 30 | 51.6 | 72.9 | 81.5 | – | – | – | – | – | –
2 | Cc1ncsc1-c1ccc(CNC(=O)[C@@H]2C[C@@H](O)CN2C(=O)[C@@H](NC(=O)CCCc2cn(CCCCCCOc3cccc(CNC(=O)c4cccc(NCc5nnc(-c6ccncn6)n5C)c4)c3)nn2)C(C)(C)C)cc1 [Compound D86] | – | – | – | – | – | – | < 100 | > 10 | > 10 | 16 | 24 | –
3 | C[C@@H](NC(=O)c1cccc(NCc2nnc(-c3ccncn3)n2C)c1)c1ccc(OCCCCCCOCCOCCOCCCC(=O)Nc2cccc3c2CN(C2CCC(=O)NC2=O)C3=O)cc1 (stereo partly drawn) [Compound D127, N-((1R)-1-(4-(6-(2-(2-(4-(2-(2,6-dioxopiperidin-3-yl)-1-oxoisoindolin-4-ylamino)-4-oxobutoxy)ethoxy)ethoxy)hexyloxy)phenyl)ethyl)-3-((4-methyl-5-(pyrimidin-4-yl)-4H-1,2,4-triazol-3-yl)methylamino)benzamide] | 2.2 | 0.1 | > 30 | 81.4 | 82.1 | 78.5 | – | – | – | – | – | –
4 | C[C@@H](NC(=O)c1cccc(NCc2nnc(-c3ccncn3)n2C)c1)c1cccc(OCCCCCCOCCOCCOCCCCCC(=O)Nc2cccc3c2CN(C2CCC(=O)N(C)C2=O)C3=O)c1 (stereo partly drawn) [Compound D190] | 12.7 | 1.74 | 26.8 | -22 | 51 | 53 | – | – | – | – | – | –
5 | C[C@@H](NC(=O)c1cccc(NCc2nnc(-c3ccncn3)n2C)c1)c1cccc(OCCCCCCOCC(=O)N2CCN(c3ccc4c(c3)CN(C3CCC(=O)NC3=O)C4=O)CC2)c1 (stereo partly drawn) [Compound D132, N-((1R)-1-(3-(6-(2-(4-(2-(2,6-dioxopiperidin-3-yl)-1-oxoisoindolin-5-yl)piperazin-1-yl)-2-oxoethoxy)hexyloxy)phenyl)ethyl)-3-((4-methyl-5-(pyrimidin-4-yl)-4H-1,2,4-triazol-3-yl)methylamino)benzamide] | 16.3 | 0.04 | > 30 | 87.4 | 92.4 | 91.5 | – | – | – | – | – | 0.12
6 | C[C@@H](NC(=O)c1cccc(NCc2nnc(-c3ccncn3)n2C)c1)c1cccc(C(=O)N2CCC(CCCN3CCN(c4ccc5c(c4)CN(C4CCC(=O)NC4=O)C5=O)CC3)CC2)c1 (stereo partly drawn) [Compound D119, N-((1R)-1-(3-(4-(3-(4-(2-(2,6-dioxopiperidin-3-yl)-1-oxoisoindolin-5-yl)piperazin-1-yl)propyl)piperidine-1-carbonyl)phenyl)ethyl)-3-((4-methyl-5-(pyrimidin-4-yl)-4H-1,2,4-triazol-3-yl)methylamino)benzamide hydrochloride] | 16.1 | 0.116 | 2.73 | 90 | 93.7 | 89 | – | – | – | – | – | –
